From patent publication EP0035641B1, “Cystein derivatives, process for their preparation and medicines containing them” (ALFA FARMACEUTICI S.p.A., priority 1980, dated 1981)
Where two headings read alike, the source gives them in different places.

Assays:
[1] = tested on: Carraghenin-Ödem; assay: Carrageenan-induced oedema test in rats (method of Winter et al.); assay type: in vivo; details: Ratten
Text: Die entzündungshemmende Wirkung wurde an Hand des Versuches mit dem von Carraghenin hervorgerufenen beziehungsweise induzierten Ödem (Carraghenin-Ödem) an Ratten, welcher im wesentlichen nach der Verfahrensweise von C. A. Winter und Mitarbeitern, J. Pharm. Expt. Ther. […] durchgeführt wurde, bewertet. Die Ergebnisse dieser Versuche sind in der folgenden Tabelle I zusammengestellt.

[2] = tested on: Granulome; assay: Cotton pellet granuloma test (method of Meier et al.); assay type: in vivo
Text: Ein weiterer Nachweis der starken entzündungshemmenden Wirkung der erfindungsgemäßen Verbindungen erfolgte mit Hilfe des Granulomwattekügelchenversuches, welcher im wesentlichen wie von R. Meier und Mitarbeitern, Experientia, 6 [1950], 1469 beschrieben durchgeführt wurde. Bei diesem Versuch wurden Granuloma durch Einsetzen eines Wattekügelchens in den intraskapularen Bereich des Versuchtieres gebildet. Die Versuchsergebnisse sind in der folgenden Tabelle 11 zusammengestellt.

[3] = tested on: durch das Reizmittel hervorgerufene Unterleibsschmerzkrümmungen; assay: Writhing test in mice (method of Wilkin et al.); assay type: in vivo, Mäusen; details: Mäuse; for ED50: Mus musculus, po, read-out: ED50 (Dosen, welche eine 50%ige Verminderung der Zusammenziehung herbeizuführen vermögen)
Description: Die schmerzlindernde Wirksamkeit wurde mit Hilfe des »Schmerzkrümmungsversuches« (»writhing test«) an Mäusen im wesentlichen nach der von Wilkin und Mitarbeitern in J. Pharm. Expt. Ther., 133 [1961 ], 409 beschriebenen Versuchsverfahrensweise bewertet. Repräsentative Versuche zeigten, daß die erfindungsgemäßen Verbindungen bei ihrer Verarbreichung in peroralen Dosen von etwa 30 bis 100 mg/kg gegenüber den Blindversuchen eine 50%ige Hemmung der durch das Reizmittel hervorgerufenen Unterleibsschmerzkrümmungen herbeiführten. Bei diesem Versuch zeigte sich, daß die schmerzlindernde Wirkung der erfindungsgemäßen Verbindung N-Acetyl-S-[D-2-(6'-methoxynaphth-2'-yl)-propionyl]-L-cystein (Verbindung der Beispiele 6 und 7) selbst 4 Stunden nach ihrer Verabreichung beträchtlich war.

SMILES	Hemmung des Carraghenin-Ödemes in %, bezogen auf die Blindversuche ([1]; Perorale Dosis 50 mg/kg)	Hemmung des Granulomes in %, bezogen auf die Blindversuche ([2]; Perorale Dosis 40 mg/kg)	Hemmung des Granulomes in %, bezogen auf die Blindversuche ([2]; Perorale Dosis 80 mg/kg)	Hemmung des Carraghenin-Ödemes in %, bezogen auf die Blindversuche ([1]; Perorale Dosis 3 mg/kg)	Hemmung des Carraghenin-Ödemes in %, bezogen auf die Blindversuche ([1]; Perorale Dosis 6 mg/kg)	Hemmung des Carraghenin-Ödemes in %, bezogen auf die Blindversuche ([1]; Perorale Dosis 12 mg/kg)	Hemmung des Carraghenin-Ödemes in %, bezogen auf die Blindversuche ([1]; Perorale Dosis 24 mg/kg)	schmerzlindernde Wirkung ([3]; 4 Stunden nach Verabreichung)	ED50 ([3]; 0.5 h, nach 30 Minuten)	ED50 ([3]; 4 h, nach 4 Stunden)
CCC1Cc2cc(CC(=O)N[C@@H](CS)C(=O)O)ccc2O1 (stereo partly drawn) [Beispiel 3, N-[2-(2'-Äthyl-2',3'-dihydrobenzofuran-5'-yl)-acetyl]-L-cystein]	−48%	−30%	–	–	–	–	–	–	–	–
COc1ccc2cc([C@H](C)C(=O)N[C@@H](CS)C(=O)O)ccc2c1 [Beispiel 4, N-[D-2-(6'-Methoxynaphth-2'-yl)-propionyl]-L-cystein]	–	−24%	−35%	–	–	–	–	–	–	–
COc1ccc2cc([C@H](C)C(=O)SC[C@H](NC(C)=O)C(=O)O)ccc2c1 [Beispiel 6 beziehungs-weise 7, N-Acetyl-S-[D-2-(6'-methoxynaphth-2'-yl)-propionyl]-L-cystein]	–	−28%	−49%	−42%	−42%	−45%	−58%	beträchtlich	25 mg/kg	10 mg/kg
COC(=O)[C@H](CS)NC(=O)[C@@H](C)c1ccc2cc(OC)ccc2c1 [Beispiel 2, N-[D-2-(6'-Methoxynaphth-2'-yl)-propionyl]-L-cysteinmethylester]	−57%	–	–	–	–	–	–	–	–	–
